Here are results for 16 compounds from patent US11702422B2, “Imidazopyridazines as modulators of IL-17” (Janssen Pharmaceutica NV, priority 2020, dated 2023).

Experiment [1] deals with IL-17A-induced G-CSF production in human normal keratinocyte (NHK). Description: NHK Assay: IL-17A-induced G-CSF production in human normal keratinocytes. The format is cell-based. The conditions noted are these: Homo sapiens, Keratinocyte, 24 h, adult normal human keratinocytes, IL-17A 5 ng/mL, simple average if tested more than once. Put shortly:
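Compound is first combined with recombinant human IL-17A for 1 h at rt, and the mix is added to adult normal human keratinocytes so that IL-17A is 5 ng/mL. After 24 h at 37° C in 5% FBS, G-CSF released into the medium is read by HTRF and IC50 derived.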

In experiment [2] the target is IL-17A(FLAG-Tagged): IL-17RA(His-Tagged) (Homo sapiens, UniProt Q16552, K93Q). Description: IL-17A(FLAG-Tagged): IL-17RA(His-Tagged) Binding Disruption Eu-HTRF Assay. The note with it: IL-17A/IL-17RA binding disruption, simple average if tested more than once. Put shortly: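 IC50 comes from a one-site competition fit of the HTRF 665/620 nm ratio. Compound dilutions (2-fold, 22 points) were held 1 h rt with FLAG-tagged IL-17A dimer, then His-tagged IL-17RA plus Eu-cryptate anti-FLAG and D2 anti-His antibodies were added for 2 h rt.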
Sequence of UniProt Q16552 (Q16552 with tags, fused parts or gaps K93Q): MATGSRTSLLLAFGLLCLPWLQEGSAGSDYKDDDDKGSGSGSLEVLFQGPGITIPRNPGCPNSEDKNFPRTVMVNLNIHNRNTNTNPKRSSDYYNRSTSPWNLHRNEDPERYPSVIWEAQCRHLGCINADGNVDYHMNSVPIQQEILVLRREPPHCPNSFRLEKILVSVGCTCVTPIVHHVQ
Background: TR-FRET usually uses a lanthanide donor and a delayed reading to cut background.

In the case of `O=C(CCC(F)(F)F)N[C@@H](c1cnn2cc([C@@H](NC(=O)c3nccc(C(F)(F)F)n3)C3CCC(F)(F)CC3)nc2c1)C1CC1` [Example 217, N—((S)-(7-((R)-Cyclopropyl(4,4,4-trifluorobutanamido)methyl)imidazo[1,2-b]pyridazin-2-yl)(4,4-difluorocyclohexyl)methyl)-4-(trifluoromethyl)pyrimidine-2-carboxamide], the IC50 (usually the concentration needed to halve the response being measured) in experiment [1] is greater than 20000 nM; in experiment [2], 4600 nM.
The matching figures for `Cc1cc(C(=O)N[C@H](c2cn3ncc([C@H](NC(=O)CCC(F)(F)F)C4CC4)cc3n2)C2CCC(F)(F)CC2)ncn1` [Example 218, N—((S)-(7-((R)-Cyclopropyl(4,4,4-trifluorobutanamido)methyl)imidazo[1,2-b]pyridazin-2-yl)(4,4-difluorocyclohexyl)methyl)-6-methylpyrimidine-4-carboxamide]: greater than 20000 nM and 2000 nM.
Take `Cc1nccnc1C(=O)N[C@H](c1cn2ncc([C@H](NC(=O)CCC(F)(F)F)C3CC3)cc2n1)C1CCC(F)(F)CC1` [Example 219, N—((S)-(7-((R)-Cyclopropyl(4,4,4-trifluorobutanamido)methyl)imidazo[1,2-b]pyridazin-2-yl)(4,4-difluorocyclohexyl)methyl)-3-methylpyrazine-2-carboxamide]: the IC50 in experiment [1] is greater than 20000 nM; in experiment [2], 2100 nM.
In the same order, the values of `Cc1cncc(C(=O)N[C@H](c2cn3ncc([C@H](NC(=O)CCC(F)(F)F)C4CC4)cc3n2)C2CCC(F)(F)CC2)n1` [Example 220, N—((S)-(7-((R)-Cyclopropyl(4,4,4-trifluorobutanamido)methyl)imidazo[1,2-b]pyridazin-2-yl)(4,4-difluorocyclohexyl)methyl)-6-methylpyrazine-2-carboxamide] are greater than 20000 nM and 15000 nM.
The matching figures for `O=C(CCC(F)(F)F)N[C@@H](c1cnn2cc([C@@H](NC(=O)c3cccc(C(F)(F)F)n3)C3CCC(F)(F)CC3)nc2c1)C1CC1` [Example 221, N—((S)-(7-((R)-Cyclopropyl(4,4,4-trifluorobutanamido)methyl)imidazo[1,2-b]pyridazin-2-yl)(4,4-difluorocyclohexyl)methyl)-6-(trifluoromethyl)picolinamide]: greater than 20000 nM and 16000 nM.
In the same order, the values of `Cc1ncncc1C(=O)N[C@H](c1cn2ncc([C@H](NC(=O)CCC(F)(F)F)C3CC3)cc2n1)C1CCC(F)(F)CC1` [Example 222, N—((S)-(7-((R)-Cyclopropyl(4,4,4-trifluorobutanamido)methyl)imidazo[1,2-b]pyridazin-2-yl)(4,4-difluorocyclohexyl)methyl)-4-methylpyrimidine-5-carboxamide] are greater than 20000 nM and 1000 nM.
Regarding `O=C(CCC(F)(F)F)N[C@@H](c1cnn2cc([C@@H](NC(=O)c3cnccn3)C3CCC(F)(F)CC3)nc2c1)C1CC1` [Example 223, N—((S)-(7-((R)-Cyclopropyl(4,4,4-trifluorobutanamido)methyl)imidazo[1,2-b]pyridazin-2-yl)(4,4-difluorocyclohexyl)methyl)pyrazine-2-carboxamide], the IC50 in experiment [1] was greater than 20000 nM; in experiment [2] it was 2900 nM.
The matching figures for `Cc1cccc(C(=O)N[C@H](c2cn3ncc([C@H](NC(=O)CCC(F)(F)F)C4CC4)cc3n2)C2CCC(F)(F)CC2)n1` [Example 224, N—((S)-(7-((R)-Cyclopropyl(4,4,4-trifluorobutanamido)methyl)imidazo[1,2-b]pyridazin-2-yl)(4,4-difluorocyclohexyl)methyl)-6-methylpicolinamide]: greater than 20000 nM and 1700 nM.
`N#Cc1ccncc1C(=O)N[C@H](c1cn2ncc([C@H](NC(=O)CCC(F)(F)F)C3CC3)cc2n1)C1CCC(F)(F)CC1` [Example 225, 4-Cyano-N—((S)-(7-((R)-cyclopropyl(4,4,4-trifluorobutanamido)methyl)imidazo[1,2-b]pyridazin-2-yl)(4,4-difluorocyclohexyl)methyl)nicotinamide]: the IC50 was greater than 20000 nM in experiment [1] and 9500 nM in experiment [2].
In the same order, the values of `COc1cccc(C(=O)N[C@H](c2cn3ncc([C@H](NC(=O)CCC(F)(F)F)C4CC4)cc3n2)C2CCC(F)(F)CC2)n1` [Example 226, N—((S)-(7-((R)-Cyclopropyl(4,4,4-trifluorobutanamido)methyl)imidazo[1,2-b]pyridazin-2-yl)(4,4-difluorocyclohexyl)methyl)-6-methoxypicolinamide] are greater than 20000 nM and 2500 nM.
In the same order, the values of `CC(C)Oc1cccc(C(=O)N[C@H](c2cn3ncc([C@H](NC(=O)CCC(F)(F)F)C4CC4)cc3n2)C2CCC(F)(F)CC2)n1` [Example 227, N—((S)-(7-((R)-Cyclopropyl(4,4,4-trifluorobutanamido)methyl)imidazo[1,2-b]pyridazin-2-yl)(4,4-difluorocyclohexyl)methyl)-6-isopropoxypicolinamide] are 20000 nM and 900 nM.
The matching figures for `CCc1cccc(C(=O)N[C@H](c2cn3ncc([C@H](NC(=O)CCC(F)(F)F)C4CC4)cc3n2)C2CCC(F)(F)CC2)n1` [Example 228, N—((S)-(7-((R)-Cyclopropyl(4,4,4-trifluorobutanamido)methyl)imidazo[1,2-b]pyridazin-2-yl)(4,4-difluorocyclohexyl)methyl)-6-ethylpicolinamide]: greater than 20000 nM and 1000 nM.
`O=C(CCC(F)(F)F)N[C@@H](c1cnn2cc([C@@H](NC(=O)c3cccc(C(F)F)n3)C3CCC(F)(F)CC3)nc2c1)C1CC1` [Example 229, N—((S)-(7-((R)-Cyclopropyl(4,4,4-trifluorobutanamido)methyl)imidazo[1,2-b]pyridazin-2-yl)(4,4-difluorocyclohexyl)methyl)-6-(difluoromethyl)picolinamide]: the IC50 is greater than 20000 nM in experiment [1] and 1200 nM in experiment [2].
In the same order, the values of `CC(F)(F)c1cccc(C(=O)N[C@H](c2cn3ncc([C@H](NC(=O)CCC(F)(F)F)C4CC4)cc3n2)C2CCC(F)(F)CC2)n1` [Example 230, N—((S)-(7-((R)-Cyclopropyl(4,4,4-trifluorobutanamido)methyl)imidazo[1,2-b]pyridazin-2-yl)(4,4-difluorocyclohexyl)methyl)-6-(1,1-difluoroethyl)picolinamide] are greater than 20000 nM and 2000 nM.
Take `O=C(CCC(F)(F)F)N[C@@H](c1cnn2cc([C@@H](NC(=O)c3ccccc3CC(F)(F)F)C3CCC(F)(F)CC3)nc2c1)C1CC1` [Example 231, N—((S)-(7-((R)-Cyclopropyl(4,4,4-trifluorobutanamido)methyl)imidazo[1,2-b]pyridazin-2-yl)(4,4-difluorocyclohexyl)methyl)-2-(2,2,2-trifluoroethyl)benzamide]: the half-maximal inhibitory concentration (IC50) is greater than 20000 nM in experiment [1] and 320 nM in experiment [2].
`CC(C)c1oncc1C(=O)N[C@H](c1cn2ncc([C@H](NC(=O)CCC(F)(F)F)C3CC3)cc2n1)C1CCC(F)(F)CC1` [Example 232, N—((S)-(7-((R)-Cyclopropyl(4,4,4-trifluorobutanamido)methyl)imidazo[1,2-b]pyridazin-2-yl)(4,4-difluorocyclohexyl)methyl)-5-isopropylisoxazole-4-carboxamide]: the figures for the IC50 in experiment [1] and in experiment [2] were 65 nM and 43 nM, respectively.
